Where “and” joins values, the source holds several entries; their conditions need not be identical. Identical values can stand only once. Inconclusive results and toxic doses are left out.
System: BDF1 mice, L1210 leukemia sc, survival T/C
Test: NCI In Vivo Anticancer Drug Screen. Data for tumor model L1210 Leukemia (subcutaneous) in B6D2F1 (BDF1) mice
Conditions: endpoint: median survival time, higher = longer survival
Summary of the method: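 Mice carrying transplanted tumors received test compounds, and survival or tumor size was measured. Values are the treated-group measurement (T) divided by that of the vehicle-treated control group (C).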

Compound: O=C1CN=C(c2ccc[nH]2)c2cc(Cl)ccc2N1
- T/C (dose: 2.5 mg/kg/injection, schedule: Q01DX009 (ip), vehicle: clinical formulation): 100 % of control
- T/C (dose: 2.5 mg/kg/injection, schedule: Q01DX009 (sc), vehicle: clinical formulation): 88 % of control
- T/C (dose: 5.0 mg/kg/injection, schedule: Q01DX009 (ip), vehicle: clinical formulation): 100 % of control
- T/C (dose: 5.0 mg/kg/injection, schedule: Q01DX009 (sc), vehicle: clinical formulation): 88 % of control
- T/C (dose: 10.0 mg/kg/injection, schedule: Q01DX009 (ip), vehicle: clinical formulation): 88 % of control
- T/C (dose: 10.0 mg/kg/injection, schedule: Q01DX009 (sc), vehicle: clinical formulation): 88 % of control
- T/C (dose: 12.5 mg/kg/injection, schedule: Q01DX009 (ip), vehicle: Klucel (hydroxypropylcellulose) (HPC)): 100 % of control
- T/C (dose: 12.5 mg/kg/injection, schedule: Q01DX009 (sc), vehicle: Klucel (hydroxypropylcellulose) (HPC)): 94 % of control
- T/C (dose: 20.0 mg/kg/injection, schedule: Q01DX009 (ip), vehicle: clinical formulation): 100 % of control
- T/C (dose: 20.0 mg/kg/injection, schedule: Q01DX009 (sc), vehicle: clinical formulation): 88 % of control
- T/C (dose: 25.0 mg/kg/injection, schedule: Q01DX009 (ip), vehicle: Klucel (hydroxypropylcellulose) (HPC)): 88 % of control
- T/C (dose: 25.0 mg/kg/injection, schedule: Q01DX009 (sc), vehicle: Klucel (hydroxypropylcellulose) (HPC)): 100 % of control
- T/C (dose: 40.0 mg/kg/injection, schedule: Q01DX009 (ip), vehicle: clinical formulation): 100 % of control
- T/C (dose: 40.0 mg/kg/injection, schedule: Q01DX009 (sc), vehicle: clinical formulation): 88 % of control
- T/C (dose: 50.0 mg/kg/injection, schedule: Q01DX009 (ip), vehicle: Klucel (hydroxypropylcellulose) (HPC)): 100 % of control
- T/C (dose: 50.0 mg/kg/injection, schedule: Q01DX009 (ip), vehicle: steriod suspending solution): 111 % of control
- T/C (dose: 50.0 mg/kg/injection, schedule: Q01DX009 (sc), vehicle: Klucel (hydroxypropylcellulose) (HPC)): 100 % of control
- T/C (dose: 50.0 mg/kg/injection, schedule: Q01DX009 (sc), vehicle: steriod suspending solution): 100 % of control
- T/C (dose: 80.0 mg/kg/injection, schedule: Q01DX009 (ip), vehicle: clinical formulation): 88 % of control
- T/C (dose: 80.0 mg/kg/injection, schedule: Q01DX009 (ip), vehicle: other): 100 % of control
- T/C (dose: 80.0 mg/kg/injection, schedule: Q01DX009 (sc), vehicle: clinical formulation): 100 % of control
- T/C (dose: 100.0 mg/kg/injection, schedule: Q01DX009 (ip), vehicle: Klucel (hydroxypropylcellulose) (HPC)): 155 % of control
- T/C (dose: 100.0 mg/kg/injection, schedule: Q01DX009 (ip), vehicle: steriod suspending solution): 111 % of control
- T/C (dose: 100.0 mg/kg/injection, schedule: Q01DX009 (sc), vehicle: Klucel (hydroxypropylcellulose) (HPC)): 111 % of control
- T/C (dose: 100.0 mg/kg/injection, schedule: Q01DX009 (sc), vehicle: steriod suspending solution): 100 % of control
- T/C (dose: 100.0 mg/kg/injection, schedule: Q08DX009 (sc), vehicle: Klucel (hydroxypropylcellulose) (HPC)): 100 % of control and 101 % of control
- T/C (dose: 200.0 mg/kg/injection, schedule: Q01DX009 (ip), vehicle: steriod suspending solution): 111 % of control
- T/C (dose: 200.0 mg/kg/injection, schedule: Q01DX009 (sc), vehicle: Klucel (hydroxypropylcellulose) (HPC)): 172 % of control
- T/C (dose: 200.0 mg/kg/injection, schedule: Q01DX009 (sc), vehicle: steriod suspending solution): 105 % of control
- T/C (dose: 200.0 mg/kg/injection, schedule: Q08DX009 (sc), vehicle: Klucel (hydroxypropylcellulose) (HPC)): 105 % of control
- T/C (dose: 400.0 mg/kg/injection, schedule: Q01DX009 (ip), vehicle: steriod suspending solution): 150 % of control
- T/C (dose: 400.0 mg/kg/injection, schedule: Q01DX009 (sc), vehicle: Klucel (hydroxypropylcellulose) (HPC)): 183 % of control
- T/C (dose: 400.0 mg/kg/injection, schedule: Q01DX009 (sc), vehicle: steriod suspending solution): 166 % of control
- T/C (dose: 400.0 mg/kg/injection, schedule: Q08DX009 (sc), vehicle: Klucel (hydroxypropylcellulose) (HPC)): 98 % of control and 100 % of control
- T/C (dose: 800.0 mg/kg/injection, schedule: Q01DX009 (sc), vehicle: steriod suspending solution): 166 % of control
- T/C (dose: 2313.0 mg/kg/injection, schedule: Q01DX009 (sc), vehicle: Klucel (hydroxypropylcellulose) (HPC)): 88 % of control and 93 % of control
- T/C (dose: 3855.0 mg/kg/injection, schedule: Q01DX009 (sc), vehicle: Klucel (hydroxypropylcellulose) (HPC)): 87 % of control

Compound: C=CC(O)CN1CC1 (configuration not stated)
- T/C (dose: 0.65 mg/kg/injection, schedule: Q01DX Z (sc), vehicle: saline): 100 % of control
- T/C (dose: 1.08 mg/kg/injection, schedule: Q01DX Z (sc), vehicle: saline): 100 % of control
- T/C (dose: 1.7 mg/kg/injection, schedule: Q01DX Z (sc), vehicle: saline): 100 % of control
- T/C (dose: 1.8 mg/kg/injection, schedule: Q01DX Z (sc), vehicle: saline): 100 % of control
- T/C (dose: 2.8 mg/kg/injection, schedule: Q01DX Z (sc), vehicle: saline): 111 % of control
- T/C (dose: 3.0 mg/kg/injection, schedule: Q02DX Z (sc), vehicle: saline): 104 % of control
- T/C (dose: 4.7 mg/kg/injection, schedule: Q01DX Z (sc), vehicle: saline): 160 % of control
- T/C (dose: 5.0 mg/kg/injection, schedule: Q01DX Z (sc), vehicle: saline): 155 % of control and 159 % of control and 163 % of control
- T/C (dose: 5.0 mg/kg/injection, schedule: Q02DX Z (sc), vehicle: saline): 118 % of control
- T/C (dose: 7.8 mg/kg/injection, schedule: Q01DX Z (sc), vehicle: saline): 170 % of control and 177 % of control
- T/C (dose: 8.4 mg/kg/injection, schedule: Q01DX Z (sc), vehicle: saline): 122 % of control
- T/C (dose: 8.4 mg/kg/injection, schedule: Q## X Z (sc), vehicle: saline): 109 % of control
- T/C (dose: 14.0 mg/kg/injection, schedule: Q01DX Z (sc), vehicle: saline): 113 % of control
- T/C (dose: 14.0 mg/kg/injection, schedule: Q02DX Z (sc), vehicle: saline): 181 % of control
- T/C (dose: 14.0 mg/kg/injection, schedule: Q## X Z (sc), vehicle: saline): 118 % of control
- T/C (dose: 21.6 mg/kg/injection, schedule: Q01DX Z (sc), vehicle: saline): 110 % of control
- T/C (dose: 23.0 mg/kg/injection, schedule: Q01DX Z (sc), vehicle: saline): 100 % of control
- T/C (dose: 23.0 mg/kg/injection, schedule: Q02DX Z (sc), vehicle: saline): 150 % of control
- T/C (dose: 23.0 mg/kg/injection, schedule: Q## X Z (sc), vehicle: saline): 154 % of control
- T/C (dose: 36.0 mg/kg/injection, schedule: Q01DX Z (sc), vehicle: saline): 111 % of control
- T/C (dose: 39.0 mg/kg/injection, schedule: Q## X Z (sc), vehicle: saline): 159 % of control
- T/C (dose: 60.0 mg/kg/injection, schedule: Q01DX Z (sc), vehicle: saline): 100 % of control
- T/C (dose: 65.0 mg/kg/injection, schedule: Q01DX001 (sc), vehicle: saline): 118 % of control
- T/C (dose: 65.0 mg/kg/injection, schedule: Q02DX Z (sc), vehicle: saline): 104 % of control
- T/C (dose: 65.0 mg/kg/injection, schedule: Q## X Z (sc), vehicle: saline): 109 % of control

Compound: OC(c1ccccc1)c1nc2ccccc2[nH]1 (configuration not stated)
- T/C (dose: 108.0 mg/kg/injection, schedule: Q01DX Z (sc), vehicle: methylcellulose (MC)): 100 % of control
- T/C (dose: 180.0 mg/kg/injection, schedule: Q01DX Z (sc), vehicle: methylcellulose (MC)): 100 % of control
- T/C (dose: 300.0 mg/kg/injection, schedule: Q01DX Z (sc), vehicle: methylcellulose (MC)): 100 % of control
- T/C (dose: 500.0 mg/kg/injection, schedule: Q01DX Z (sc), vehicle: methylcellulose (MC)): 100 % of control
- T/C (dose: 840.0 mg/kg/injection, schedule: Q01DX Z (sc), vehicle: methylcellulose (MC)): 100 % of control

Compound: COc1cc2cc3c4cc(OC)c(OC)cc4cc[n+]3c(C)c2cc1OC
- T/C (dose: 100.0 mg/kg/injection, schedule: Q01DX009 (sc), vehicle: saline): 97 % of control and 100 % of control
- T/C (dose: 200.0 mg/kg/injection, schedule: Q01DX009 (sc), vehicle: saline): 97 % of control and 100 % of control
- T/C (dose: 400.0 mg/kg/injection, schedule: Q01DX009 (sc), vehicle: saline): 99 % of control and 100 % of control
- T/C (dose: 800.0 mg/kg/injection, schedule: Q01DX009 (sc), vehicle: saline): 100 % of control and 101 % of control
- T/C (dose: 1600.0 mg/kg/injection, schedule: Q01DX009 (sc), vehicle: saline): 97 % of control and 100 % of control

Source: PubChem BioAssay AID250 (DTP/NCI, 2004)
